According to publication PMC8234864, “Early Effects of the Soluble Amyloid β25-35 Peptide in Rat Cortical Neurons: Modulation of Signal Transduction Mediated by Adenosine and Group I Metabotropic Glutamate Receptors” (International Journal of Molecular Sciences, 2021):
Entries after “also recorded” stand apart in the source; their conditions may differ.

Tests used:
[1] = system: rat cortical neurons exposed to Aβ25-35; test: Effect of receptor ligands on Aβ25-35 induced toxicity (MTT); type: cell-based; conditions: ligand 100 µM added 30 min before Aβ25-35 (25 µM, 24 h)
Procedure: (§1) Aβ25-35 and Aβ1-42 were water-soluble peptides, however, while Aβ25-35, the functional domain of Aβ required for both neurotrophic and neurotoxic effects, was directly added to neuronal cultures after its solubilisation, Aβ1-42 was solved in water and maintained for 24 h at 37 °C before its addition to promote its aggregation. To test the effect of mGluR ligands on cell death induced by Aβ in neuronal cultures, these drugs were added 30 min before the addition of Aβ25-35 and maintained during Aβ exposure. Unless otherwise indicated, all chemicals were dissolved in water.
(§2) Cell viability was determined on 96-well plates using an in vitro toxicology assay kit based on a mitochondrial-dependent reaction that transforms 3-[4,5-dimetylthiazol-2-yl]-2,5-diphenyltetrazolium bromide (MTT) into formazan crystals. Briefly, at the end of treatments, cells were incubated in culture medium with MTT solution (5 mg/mL) at 37 °C for 3 h. After incubation, MTT solubilization solution (10% Triton X-100 plus 0.1 M HCl in isopropanol anhydrous) was added into the wells to dissolve formazan crystals and the absorbance of each well was measured at 570 nm and 690 nm, according to the manufacturer’s instructions.

[2] = system: Group I mGluR/PLC signalling pathway; test: Phospholipase C activity (IP3 accumulation), basal and DHPG-stimulated; type: cell-based, rat; conditions: added 10 min before DHPG, control cells
Procedure: This method was previously reported and is divided into two well-defined steps: IP3 accumulation: culture medium was discharged, and cells were washed twice with DMEM containing 20 mM HEPES, pH 7.4. After 20 min at 37 °C, different ligands were added to cells for 10 min at 37 °C to analyse their effect on PLC activity in a final reaction volume of 300 μL. The enzymatic reaction was stopped and cells lysed by adding 50 μL 2.8 M perchloric acid and placing plates on ice for 30 min. The medium was neutralized with 70 μ[…] Tris-HCl, 2 M KOH, and 60 mM EGTA, transferred to Eppendorf tubes and centrifuged at 12,000× g for 10 min. The supernatant was then collected to determine the IP3 level. IP3 level determination: IP3 levels in cells were determined as previously reported by Palmer and modified by […] [100]. Incubation of [^3H]IP3 (0.2 pmol; 3000-5000 cpm) in assay buffer (100 mM Tris-HCl, 4 mM EDTA, 4 mM EGTA, 4 mg/mL BSA, pH 9.0), binding protein (500-600 μg), and 25-50 μL of supernatant obtained from IP3 accumulation assay was carried out. Samples were incubated at 4 °C for 60 min and centrifuged at 12,000× g for 10 min. Pellets were suspended in 100 μL 0.2% SDS and transferred to scintillation vials to measure radioactivity. A standard curve was made with known [^3H]IP3 concentrations (0.25-10 μM). Nonspecific binding was determined in the presence of 10 μM unlabeled IP3. Binding protein was obtained from bovine suprarenal capsules according to Palmer's protocol.

rat cortical neurons = test: MTT reduction cell viability assay after Aβ exposure; type: cell-based; conditions: 25 µM, 24 h, MTT, positive control
Procedure: as §1, §2

Molecule	effect on Aβ25-35 induced toxicity [1]	other results
CCNC(=O)[C@H]1O[C@@H](n2cnc3c(N)nc(NCCc4ccc(CCC(=O)O)cc4)nc32)[C@H](O)[C@@H]1O [CGS21680, 2-[p-(2-carboxyethyl)phenylamino]-50-N-ethylcarboxyamide adenosine]	no significant effect	–
OC[C@H]1O[C@@H](n2cnc3c(NC4CCCC4)ncnc32)[C@H](O)[C@@H]1O [CPA, N^6-cyclopentyladenosine]	no significant effect	–
N[C@H](C(=O)O)c1cc(O)cc(O)c1 [DHPG, (S)-3,5-dihydroxyphenylglycine]	no significant effect	–
CCCn1c(=O)c2[nH]c(C3CCCC3)nc2n(CCC)c1=O [DPCPX, 8-Cyclopentyl-1,3-dipropylxanthine]	no significant effect; also recorded: ineffective	–
CO[C@H]1CC[C@@H](C(=O)c2ccc3nc4c(cc3c2)CCCO4)CC1 [JNJ 16259685, (3,4-Dihydro-2H-pyrano[2,3-b]quinolin-7-yl)-(cis-4-methoxycyclohexyl)-methanone]	–	effect on DHPG-elicited PLC stimulation ([2]; 0.5 µM): blocked DHPG-elicited PLC stimulation
Cc1cccc(C#Cc2ccccc2)n1.Cl [MPEP, 2-Methyl-6-(phenylethynyl)pyridine hydrochloride]	–	effect on DHPG-elicited PLC stimulation ([2]; 1 µM): blocked DHPG-elicited PLC stimulation
Nc1nc(NCCc2ccc(O)cc2)nc2nc(-c3ccco3)nn12 [ZM241385, 4-(2-[7-Amino-2-(2-furyl) [1,2,4]triazolo [2,3-a] [1,3,5]triazin-5-ylamino]ethyl)phenol]	no significant effect	–
Aβ1-42: whole amyloid β peptide, kept 24 h at 37 °C to promote aggregation; positive control	–	cell viability (rat cortical neurons): decrease in cell viability
